Laboratory results from PubChem BioAssay AID1259407 (Chemical Carcinogenesis Research Information System (CCRIS), 2018).
Active and inactive are the calls of the source. No rule for the calls is given here.

System: CCRIS mutagenicity, Ames/micronucleus/aberration tests
Assay: CCRIS mutagenicity studies
[1] = Test System: AMES SALMONELLA TYPHIMURIUM, Strain/Indicator: TA98, Metabolic Activation: NONE, Method: STANDARD PLATE
[2] = Test System: AMES SALMONELLA TYPHIMURIUM, Strain/Indicator: TA100, Metabolic Activation: NONE, Method: STANDARD PLATE
[3] = Test System: AMES SALMONELLA TYPHIMURIUM, Strain/Indicator: TA98, Metabolic Activation: RAT, LIVER, S-9, AROCLOR 1254, Method: STANDARD PLATE
[4] = Test System: AMES SALMONELLA TYPHIMURIUM, Strain/Indicator: TA100, Metabolic Activation: RAT, LIVER, S-9, AROCLOR 1254, Method: STANDARD PLATE
[5] = Test System: AMES SALMONELLA TYPHIMURIUM, Strain/Indicator: TA1537, Metabolic Activation: NONE, Method: STANDARD PLATE
[6] = Test System: AMES SALMONELLA TYPHIMURIUM, Strain/Indicator: TA1537, Metabolic Activation: RAT, LIVER, S-9, AROCLOR 1254, Method: STANDARD PLATE
[7] = Test System: AMES SALMONELLA TYPHIMURIUM, Strain/Indicator: TA1538, Metabolic Activation: RAT, LIVER, S-9, AROCLOR 1254, Method: STANDARD PLATE
[8] = Test System: AMES SALMONELLA TYPHIMURIUM, Strain/Indicator: TA102, Metabolic Activation: NONE, Method: STANDARD PLATE

## ClCc1cc2cc3ccccc3c3ccc4cccc1c4c23
[1]
  mutagenic call: active; positive
[2]
  mutagenic call: active; positive

## C[n+]1cccc(C(=O)[O-])c1
Test System: AMES SALMONELLA TYPHIMURIUM, Strain/Indicator: TA98, Metabolic Activation: HAMSTER, LIVER, S-9, AROCLOR 1254, Method: STANDARD PLATE
  mutagenic call: inactive; negative
[1]
  mutagenic call: inactive; negative
Test System: AMES SALMONELLA TYPHIMURIUM, Strain/Indicator: TA98, Metabolic Activation: RAT LIVER S-9, CHLOROPHENE, Method: STANDARD PLATE (COMPOUND HEATED AT 250 DEGREES CELSIUS FOR 20 MIN)
  mutagenic call: active; positive
[3]
  mutagenic call: inactive; negative
Test System: AMES SALMONELLA TYPHIMURIUM, Strain/Indicator: TA100, Metabolic Activation: HAMSTER, LIVER, S-9, AROCLOR 1254, Method: STANDARD PLATE
  mutagenic call: inactive; negative
[2]
  mutagenic call: inactive; negative
[4]
  mutagenic call: inactive; negative
Test System: AMES SALMONELLA TYPHIMURIUM, Strain/Indicator: TA1535, Metabolic Activation: HAMSTER, LIVER, S-9, AROCLOR 1254, Method: STANDARD PLATE
  mutagenic call: inactive; negative
Test System: AMES SALMONELLA TYPHIMURIUM, Strain/Indicator: TA1535, Metabolic Activation: NONE, Method: STANDARD PLATE
  mutagenic call: inactive; negative
Test System: AMES SALMONELLA TYPHIMURIUM, Strain/Indicator: TA1535, Metabolic Activation: RAT, LIVER, S-9, AROCLOR 1254, Method: STANDARD PLATE
  mutagenic call: inactive; negative
Test System: AMES SALMONELLA TYPHIMURIUM, Strain/Indicator: TA1537, Metabolic Activation: HAMSTER, LIVER, S-9, AROCLOR 1254, Method: STANDARD PLATE
  mutagenic call: inactive; negative
[5]
  mutagenic call: inactive; negative
[6]
  mutagenic call: inactive; negative
Test System: AMES SALMONELLA TYPHIMURIUM, Strain/Indicator: TA1538, Metabolic Activation: HAMSTER, LIVER, S-9, AROCLOR 1254, Method: STANDARD PLATE
  mutagenic call: inactive; negative
Test System: AMES SALMONELLA TYPHIMURIUM, Strain/Indicator: TA1538, Metabolic Activation: NONE, Method: STANDARD PLATE
  mutagenic call: inactive; negative
[7]
  mutagenic call: inactive; negative
Test System: MOUSE LYMPHOMA, Strain/Indicator: L5178Y (TK+/TK-), Metabolic Activation: NONE, Method: SUSPENSION/PLATE
  mutagenic call: inactive; negative. reevaluation of results: inconclusive
Test System: MOUSE LYMPHOMA, Strain/Indicator: L5178Y (TK+/TK-), Metabolic Activation: RAT, LIVER, S-9, AROCLOR 1254, Method: SUSPENSION/PLATE
  mutagenic call: inactive; negative. reevaluation of results: inconclusive

## Nc1cc(N)cc(Cl)c1
End Point: IN VITRO CHROMOSOMAL ABERRATIONS, Test System: CHL CELLS, Metabolic Activation: RAT, LIVER, S-9, SODIUM PHENOBARBITAL AND 5,6-BENZOFLAVONE
  mutagenic call: active; positive (structural changes)
Test System: UDS RODENT HEPATOCYTES, Strain/Indicator: THY INCORP (NON-S-PHASE), Metabolic Activation: NONE, Method: AUTORADIOGRAPHY
  mutagenic call: active; positive

## N#Cc1cccc(/C=C/c2ccc(N)cc2)c1
Test System: AMES SALMONELLA TYPHIMURIUM, Strain/Indicator: TA98(1,8-DNP6), Metabolic Activation: NONE, Method: STANDARD PLATE
  mutagenic call: inactive; negative
Test System: AMES SALMONELLA TYPHIMURIUM, Strain/Indicator: TA98(1,8-DNP6), Metabolic Activation: S-9, Method: STANDARD PLATE
  mutagenic call: active; positive
[1]
  mutagenic call: active; positive
Test System: AMES SALMONELLA TYPHIMURIUM, Strain/Indicator: TA98, Metabolic Activation: S-9, Method: STANDARD PLATE
  mutagenic call: active; positive
[2]
  mutagenic call: inactive; negative
Test System: AMES SALMONELLA TYPHIMURIUM, Strain/Indicator: TA100, Metabolic Activation: S-9, Method: STANDARD PLATE
  mutagenic call: active; positive

## Cc1cc(-c2cc3c(cc2F)n2c(=O)n(O)c(=O)cc2n3C2CC2)cc(C)n1
[8]
  mutagenic call: active; positive

## O=[N+]([O-])c1cc2ccc3cccc4ccc(c1O)c2c34
Test System: AMES SALMONELLA TYPHIMURIUM, Strain/Indicator: TA98(NR), Metabolic Activation: NONE, Method: STANDARD PLATE
  mutagenic call: active; positive
[1]
  mutagenic call: active; positive
[3]
  mutagenic call: active; positive
[2]
  mutagenic call: active; positive
[4]
  mutagenic call: active; positive

## c1ccc2c(c1)-c1ccc3ccc4cccc5cc-2c1c3c45
[2]
  mutagenic call: inactive; negative
Test System: AMES SALMONELLA TYPHIMURIUM, Strain/Indicator: TA100, Metabolic Activation: RAT, LIVER, S-9, AROCLOR 1254, Method: PREINCUBATION
  mutagenic call: active; positive
[4]
  mutagenic call: active; positive
[6]
  mutagenic call: active; positive
[7]
  mutagenic call: active; positive

## CC(=O)[C@H]1CC[C@H]2[C@@H]3C=CC4=CC(=O)CC[C@@]4(C)[C@@H]3CC[C@]12C
End Point: IN VIVO MICRONUCLEUS, Test System: HEPATOCYTES, Species: RAT, Strain/Sex: SPRAGUE-DAWLEY/FEMALE, Route: INTRAGASTRIC (GAVAGE)
  mutagenic call: inactive; negative

## CCC1C(C)=NN=C(c2ccc(OC)c(OC)c2)c2cc(OC)c(OC)cc21 (stereo not given)
Test System: AMES SALMONELLA TYPHIMURIUM, Strain/Indicator: TA97, Metabolic Activation: NONE, Method: STANDARD PLATE
  mutagenic call: inactive; negative
Test System: AMES SALMONELLA TYPHIMURIUM, Strain/Indicator: TA97, Metabolic Activation: RAT LIVER S-9, AROCLOR 1254, Method: STANDARD PLATE
  mutagenic call: inactive; negative
[1]
  mutagenic call: inactive; negative
Test System: AMES SALMONELLA TYPHIMURIUM, Strain/Indicator: TA98, Metabolic Activation: RAT LIVER S-9, AROCLOR 1254, Method: STANDARD PLATE
  mutagenic call: inactive; negative
[2]
  mutagenic call: inactive; negative
Test System: AMES SALMONELLA TYPHIMURIUM, Strain/Indicator: TA100, Metabolic Activation: RAT LIVER S-9, AROCLOR 1254, Method: STANDARD PLATE
  mutagenic call: inactive; negative
[8]
  mutagenic call: inactive; negative
Test System: AMES SALMONELLA TYPHIMURIUM, Strain/Indicator: TA102, Metabolic Activation: RAT LIVER S-9, AROCLOR 1254, Method: STANDARD PLATE
  mutagenic call: inactive; negative
[5]
  mutagenic call: inactive; negative
Test System: AMES SALMONELLA TYPHIMURIUM, Strain/Indicator: TA1537, Metabolic Activation: RAT LIVER S-9, AROCLOR 1254, Method: STANDARD PLATE
  mutagenic call: inactive; negative
